According to publication PMC9385671 (Nature Communications, 2022):
“And” between values parts separate entries of the source, which are not always exact repeats. Equal values may be shown once. Read-outs that look alike come from different tables or passages of the source.

Key:
[1] = biological target: FtsZ-YFP-mts (Escherichia coli, UniProt P0A9A6); type: biochemical; design: made in house; host or cells: E. coli BL21(DE3) for the wild type; settings: 5 μM protein, 1 mM GTP
Experimental: Reactions were performed every 20 s for a total time of 120 s. After 30 min of incubation with BIOMOL® GREEN at room temperature, the absorbance of the samples at 620 nm was monitored by TECAN plate reader. The phosphate release concentrations were calculated based on a phosphate standard curve.

[2] = Side-chain acidity: pKa by 1H NMR titration of free amino acids; type: physicochemical; settings: for pKa: aqueous KH2PO4 solution titrated with sodium hydroxide; for pKa of the phenolic side-chain: experimental error ±0.15
Experimental: 10–20 mg of an amino acid, 50 mg of KH2PO4 was dissolved in 15 ml of water and titrated by sodium hydroxide solution to distinct pH values. 500 μl were taken to NMR tubes, 50 μl deuterium oxidewas added and ^1H NMR spectra were measured using W5 pulse tray water suppression at 500 MHz frequency. The chemical shifts were plotted against pH and analyzed using Henderson-Hasselbalch equation to deliver the pKa values. Experimental error ±0.15.

[3] = biological target: T1, MjTyrRS variants (Methanocaldococcus jannaschii, UniProt Q57834, D158A/F108Q/H70G/L162N/L65E/Q109C/Y32G); experiment: Intact cell fluorescence assay of HYs incorporation into SUMO-sfGFP; type: cell-based; settings: for Fluorescence Instensity: Synthetase B48RS; for Incorporation efficiency (sfGFP fluorescence) versus control without HYs additions: mutant B48RS, 1 mM HY, E. coli DH10b
T1 construct: expressed in transfected cells
Experimental: (§1) The intact cell fluorescence assay was performed to approximately compare the Br2Y and Cl2Y incorporation efficiency of screened MjTyrRSs as well as to estimate their promiscuity against other Tyr analogues. Since the gene expression of SUMO-sfGFP was driven by T5 promoter on the one round positive selection plasmid, SUMO-sfGFP can be directly expressed in DH10b strain. […] Next day, an overnight culture was inoculated in a well at a ratio of 1:100 containing 300 μL TB medium supplemented with 50 μg/mL Kan,100 μg/mL Amp, 0.5 mM IPTG as well as 1 mM HYs while the corresponding control lacked the HYs. Cells were grown in 96 well plates (Ibidi) with orbital shaking (2 mm amplitude) for 24 h at 37 °C covered with a gas-permeable foil (Sigma Aldrich, Taufkirchen, Germany). […] After 24 h incubation, the optimal density and fluorescence was measured via top reading after the gas-permeable foil was removed. Each measurement was done in triplicate.

[4] = test system: MjTyrRS variants; experiment: as above; type: cell-based, Methanocaldococcus jannaschii
Experimental: as §1

[5] = biological target: T2, MjTyrRS variants (Methanocaldococcus jannaschii, UniProt Q57834, D158A/F108N/H70G/L162C/L65E/Y32V); experiment: as above; type: cell-based; settings: Synthetase C64RS
T2 construct: expressed in transfected cells
Experimental: as §1

[6] = experimental error ±0.15, read-out: Ammonium pKa
[7] = experimental error ±0.15, read-out: pKa of the phenolic side-chain

FtsZ-YFP-mts, sequence (P0A9A6 1-366): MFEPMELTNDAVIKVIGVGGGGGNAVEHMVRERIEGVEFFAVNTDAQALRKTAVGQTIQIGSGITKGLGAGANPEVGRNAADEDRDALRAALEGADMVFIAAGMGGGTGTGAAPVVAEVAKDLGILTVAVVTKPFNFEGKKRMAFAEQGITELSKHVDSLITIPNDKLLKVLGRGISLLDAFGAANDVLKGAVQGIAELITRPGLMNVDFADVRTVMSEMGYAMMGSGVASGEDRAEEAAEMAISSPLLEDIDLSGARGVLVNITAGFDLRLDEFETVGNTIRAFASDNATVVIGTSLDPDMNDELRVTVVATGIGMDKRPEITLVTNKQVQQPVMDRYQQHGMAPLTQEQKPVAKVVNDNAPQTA
T1 sequence (Q57834 whole entry Y32G/L65E/H70G/F108Q/Q109C/D158A/L162N): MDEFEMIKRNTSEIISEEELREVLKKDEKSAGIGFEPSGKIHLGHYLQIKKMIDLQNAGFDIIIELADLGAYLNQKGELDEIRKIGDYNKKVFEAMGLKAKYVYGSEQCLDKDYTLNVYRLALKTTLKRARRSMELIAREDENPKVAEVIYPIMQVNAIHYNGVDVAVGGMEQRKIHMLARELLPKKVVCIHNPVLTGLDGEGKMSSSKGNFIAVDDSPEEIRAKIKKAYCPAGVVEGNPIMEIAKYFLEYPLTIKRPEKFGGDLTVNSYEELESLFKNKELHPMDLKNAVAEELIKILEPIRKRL
T2 sequence (Q57834 whole entry Y32V/L65E/H70G/F108N/D158A/L162C): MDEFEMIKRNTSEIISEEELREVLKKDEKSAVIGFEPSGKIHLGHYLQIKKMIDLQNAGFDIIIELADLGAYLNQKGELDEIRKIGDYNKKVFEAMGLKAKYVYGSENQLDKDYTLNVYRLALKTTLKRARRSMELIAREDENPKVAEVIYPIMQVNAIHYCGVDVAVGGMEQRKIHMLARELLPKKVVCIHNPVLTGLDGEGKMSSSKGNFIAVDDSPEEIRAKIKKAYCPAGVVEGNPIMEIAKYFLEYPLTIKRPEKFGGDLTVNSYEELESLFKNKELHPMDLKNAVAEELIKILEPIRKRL

Row | SMILES | GTPase activity, Average ([1]; average of two repeats) [pi/min] | GTPase activity, single repeats ([1]; repeat 1 and repeat 2) | pKa [2, 6] | pKa [2, 7] | pKa of the phenolic side-chain [2] | Fluorescence Instensity [3] | Incorporation efficiency (sfGFP fluorescence) versus control without HYs additions [3] | Fluorescence Instensity ([4]; Synthetase B4RS) | Fluorescence Instensity ([4]; Synthetase B12RS) | Fluorescence Instensity ([4]; Synthetase B37RS) | Fluorescence Instensity ([4]; Synthetase B39RS) | Fluorescence Instensity ([4]; Synthetase C5RS) | Fluorescence Instensity ([4]; Synthetase C45RS) | Fluorescence Instensity ([4]; Synthetase C61RS) | Fluorescence Instensity [5]
1 | N[C@@H](Cc1cc(Br)c(O)c(Br)c1)C(=O)O [Br2Y, 3,5-dibromo-L-tyrosine] | 3.469 | 3.2195 pi/min and 3.7182 pi/min | 9.47 | 6.5 | 6.42 and 6.4 | 0.6442 a.u. and 0.7285 a.u. and 0.5778 a.u. | more than 100 fold | 0.3153 a.u. and 0.3784 a.u. and 0.2551 a.u. | 0.5915 a.u. and 0.6712 a.u. and 0.4959 a.u. | 0.6 a.u. and 0.6999 a.u. and 0.4943 a.u. | 0.615 a.u. and 0.7381 a.u. and 0.4945 a.u. | 0.6366 a.u. and 0.6936 a.u. and 0.5742 a.u. | 0.5945 a.u. and 0.6865 a.u. and 0.5035 a.u. | 0.4306 a.u. and 0.4884 a.u. and 0.3801 a.u. | 0.543 a.u. and 0.6311 a.u. and 0.4752 a.u.
2 | N[C@@H](Cc1ccc(O)c(Br)c1)C(=O)O [BrY, 3-bromo-L-tyrosine] | – | – | 9.52 | 8.3 | 8.29 | 0.5063 a.u. and 0.6051 a.u. and 0.4087 a.u. | more than 100 fold | 0.06278 a.u. and 0.07689 a.u. and 0.04597 a.u. | 0.408 a.u. and 0.4614 a.u. and 0.3514 a.u. | 0.2591 a.u. and 0.2929 a.u. and 0.2246 a.u. | – | 0.7502 a.u. and 0.845 a.u. and 0.6301 a.u. | 0.7918 a.u. and 0.9328 a.u. and 0.6597 a.u. | 0.2377 a.u. and 0.2625 a.u. and 0.2104 a.u. | 0.3329 a.u. and 0.3931 a.u. and 0.2701 a.u.
